Experimental data reported in patent publication US20230312550A1, “N-(2-(4-CYANOTHIAZOLIDIN-3-YL)-2-OXOETHYL)-QUINOLINE-4-CARBOXAMIDES” (AstraZeneca AB, priority 2020, published 2023).
Values after ≈ are worked out from the molar mass of the structure shown.

How the values were obtained:
[1] = target: FAP (Homo sapiens (Human), UniProt Q12884); test: hFAP inhibition assay; type: biochemical; settings: hFAP 0.24 nM, Ala-Pro-AMC 20 μM; n = 1 or geometric mean n = 2-3
Experimental: 384 low volume black plates (Greiner #784076) were used. 4 μL, 0.48 nM enzyme solution (100 mM Tris HCl, 100 mM NaCl, 0.05% Chaps, pH 7.4) was added to 40 nL compounds (in DMSO) at 10 CR, 3 fold dilution series from 50 μM FAC. Plates were incubated for 15 min at rt in dark. 4 μL, 40 μM substrate solution (100 mM Tris HCl, 100 mM NaCl, 0.05% Chaps, pH 7.4) was added to each well. Plates were centrifuged at 1000 rpm and incubated for 30 min at rt in dark. The plates were read on a PHERAstar® reader with excitation 340 nm and emission 460 nm. Data were analyzed in Genedata Screener®. IC50 values were determined by plotting % inhibition versus log compound concentration and using a one site dose response model.

[2] = target: Prolyl endopeptidase, Prolyl Oligopeptidase (hPREP) (Homo sapiens (Human), UniProt P48147); test: hPrep inhibition assay; type: biochemical; settings: hPREP 0.6 nM, Z-Gly-Pro-amino-methylcoumarin 50 μM; read-out: PREP IC50
How it was run: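 Fluorogenic read-out (340 nm excitation, 460 nm emission) after 20 min at rt, using 50 μM final Z-Gly-Pro-aminomethylcoumarin and 0.6 nM final enzyme, following 15 min compound preincubation. Buffer pH 7.5 with glutathione and Triton X-100. IC50 via one-site model on % inhibition vs log concentration.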

[3] = target: hFAP (M39-A757) (Homo sapiens (Human), UniProt Q12884); test: hFAP binding assay (surface plasmon resonance); settings: SPR, 20° C.; for hFAP Binding assay k(off) / hFAP Binding assay k(on): single cycle kinetics; for Kd: n = 1 or geometric mean n = 2-4
[4] = target: human Fibroblast activation protein alpha (hFAP) (Homo sapiens (Human), UniProt Q12884); test: hFAP inhibition assay (tight binders); type: biochemical; settings: Ala-Pro-AMC 20 μM, n = 1 or geometric mean n = 2-6; also: hFAP 2.4 pM
Experimental: The plates were read on a PHERAstar® reader with excitation 340 nm and emission 460 nm. Data were analyzed in Genedata Screener®. IC50 values were determined by plotting % inhibition versus log compound concentration and using a one site dose response model.

[5] = Metabolic stability in human liver microsomes (HLM); settings: human
Experimental: Metabolic stability in HLM was measured as described in J Comput Aided Mol Des 2015, 29, 795.

[6] = Caco-2 cell permeability; settings: human
Experimental: Caco-2 cell permeability was measured as described in Mol Pharm 2017, 14, 1601.

[7] = Metabolic stability in rat hepatocytes (rHep); settings: n = 1 or geometric mean of n = 2-3
[8] = Kinetic solubility; settings: kinetic from dmso stock
Experimental: Kinetic solubility was measured as described in Comput Aided Mol Des 2015, 29, 795.

[9] = HLM CLint, n = 1 or average of n = 2-3
[10] = Solubility, kinetic solubility, n = 1 or average of n = 2-3

Sequence of hFAP (M39-A757) (Q12884 39-757): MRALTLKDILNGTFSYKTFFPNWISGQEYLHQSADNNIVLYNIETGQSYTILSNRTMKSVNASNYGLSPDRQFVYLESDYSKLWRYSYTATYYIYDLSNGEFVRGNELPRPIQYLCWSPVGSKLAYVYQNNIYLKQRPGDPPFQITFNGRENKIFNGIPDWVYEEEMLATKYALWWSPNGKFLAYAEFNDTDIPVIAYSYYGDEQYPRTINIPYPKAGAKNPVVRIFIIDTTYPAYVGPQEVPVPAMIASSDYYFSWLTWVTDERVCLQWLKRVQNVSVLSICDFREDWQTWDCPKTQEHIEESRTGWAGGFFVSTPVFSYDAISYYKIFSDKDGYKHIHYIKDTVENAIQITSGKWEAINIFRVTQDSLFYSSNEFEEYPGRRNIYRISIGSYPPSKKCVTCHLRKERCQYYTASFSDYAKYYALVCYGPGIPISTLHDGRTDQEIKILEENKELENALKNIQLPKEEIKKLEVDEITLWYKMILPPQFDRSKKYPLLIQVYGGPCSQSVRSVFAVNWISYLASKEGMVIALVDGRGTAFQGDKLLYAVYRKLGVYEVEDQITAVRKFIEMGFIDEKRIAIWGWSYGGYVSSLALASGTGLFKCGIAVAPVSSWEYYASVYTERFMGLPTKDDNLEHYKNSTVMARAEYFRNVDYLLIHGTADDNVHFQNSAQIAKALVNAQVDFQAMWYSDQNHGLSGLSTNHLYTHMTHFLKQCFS
Sequence of human Fibroblast activation protein alpha (hFAP) (Q12884 38-760): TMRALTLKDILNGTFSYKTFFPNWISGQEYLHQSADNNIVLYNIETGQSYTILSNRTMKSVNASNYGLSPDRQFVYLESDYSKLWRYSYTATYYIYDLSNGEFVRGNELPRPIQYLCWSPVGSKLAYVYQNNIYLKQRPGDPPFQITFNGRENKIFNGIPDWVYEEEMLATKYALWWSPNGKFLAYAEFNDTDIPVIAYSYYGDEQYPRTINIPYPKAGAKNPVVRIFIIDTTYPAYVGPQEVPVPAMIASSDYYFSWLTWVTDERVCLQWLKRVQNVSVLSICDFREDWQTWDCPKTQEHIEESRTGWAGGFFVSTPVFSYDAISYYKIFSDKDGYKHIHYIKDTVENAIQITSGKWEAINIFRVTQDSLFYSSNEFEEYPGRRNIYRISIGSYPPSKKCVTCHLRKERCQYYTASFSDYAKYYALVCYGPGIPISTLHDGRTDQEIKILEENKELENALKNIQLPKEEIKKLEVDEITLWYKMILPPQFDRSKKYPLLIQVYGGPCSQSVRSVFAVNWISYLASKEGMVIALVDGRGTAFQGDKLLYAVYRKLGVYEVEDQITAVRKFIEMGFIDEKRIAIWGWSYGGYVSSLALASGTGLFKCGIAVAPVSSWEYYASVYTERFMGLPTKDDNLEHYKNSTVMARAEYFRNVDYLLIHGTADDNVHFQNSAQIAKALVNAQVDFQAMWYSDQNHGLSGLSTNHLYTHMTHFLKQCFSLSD
Sequence of Prolyl endopeptidase, Prolyl Oligopeptidase (hPREP) (P48147 whole entry): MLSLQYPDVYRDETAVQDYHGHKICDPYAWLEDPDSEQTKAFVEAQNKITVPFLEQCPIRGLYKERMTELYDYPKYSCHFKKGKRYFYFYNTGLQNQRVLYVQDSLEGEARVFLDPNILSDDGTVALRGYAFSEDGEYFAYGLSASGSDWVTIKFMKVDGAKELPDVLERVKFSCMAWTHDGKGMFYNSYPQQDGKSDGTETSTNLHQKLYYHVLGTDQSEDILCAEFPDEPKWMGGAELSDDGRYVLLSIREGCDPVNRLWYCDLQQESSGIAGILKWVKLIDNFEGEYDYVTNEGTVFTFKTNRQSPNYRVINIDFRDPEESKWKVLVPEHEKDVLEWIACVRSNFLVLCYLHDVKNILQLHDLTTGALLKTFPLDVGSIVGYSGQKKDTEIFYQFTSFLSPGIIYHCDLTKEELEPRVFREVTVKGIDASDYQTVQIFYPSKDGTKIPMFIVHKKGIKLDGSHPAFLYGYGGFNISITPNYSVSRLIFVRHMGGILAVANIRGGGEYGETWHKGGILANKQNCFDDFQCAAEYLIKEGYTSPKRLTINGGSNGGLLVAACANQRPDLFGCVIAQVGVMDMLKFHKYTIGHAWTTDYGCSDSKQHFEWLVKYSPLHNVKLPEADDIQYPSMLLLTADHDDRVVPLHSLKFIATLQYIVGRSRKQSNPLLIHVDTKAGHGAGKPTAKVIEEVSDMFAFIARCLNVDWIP
Sequence of FAP (Q12884 38-760): as the sequence (Q12884 38-760) above

In the case of `N#C[C@@H]1CSCN1C(=O)CNC(=O)c1ccnc2ccc(N3CCC[C@H](F)C3)cc12` (mixture of isomers) [Example 40, N-(2-((R)-4-Cyanothiazolidin-3-yl)-2-oxoethyl)-6-((RS)-3-fluoropiperidin-1-yl)quinoline-4-carboxamide], the IC50 [1] is reported as 0.24 nM, the IC50 [2] is reported as 280 nM and the “hFAP Binding assay k(off)” value [3] is reported as 0.000046 s⁻¹. The “hFAP Binding assay k(on)” value [3] was 1300000 M⁻¹ s⁻¹, the Kd [3] was 0.043 nM and the IC50 [4] was 0.065 nM.
In the case of `COC[C@@H]1CN(c2ccc3nccc(C(=O)NCC(=O)N4CSC[C@H]4C#N)c3c2)CCO1` [Example 93, N-(2-((R)-4-Cyanothiazolidin-3-yl)-2-oxoethyl)-6-((S)-2-(methoxymethyl)-morpholino)quinoline-4-carboxamide], the IC50 [2] is reported as 1900 nM, the “hFAP Binding assay k(off)” value [3] is reported as 0.000080 s⁻¹ and the “hFAP Binding assay k(on)” value [3] is reported as 1800000 M⁻¹ s⁻¹. For the same compound, the Kd [3] was 0.047 nM, the microsomal CLint [5, 9] was < 3 µL/min/mg and the Papp A→B [6] was 0.33 ×10⁻⁶ cm/s. The Papp B→A [6] was 17 ×10⁻⁶ cm/s, the efflux ratio [6] was 50 and the IC50 [4] was 0.091 nM. The “rHep CLint” value [7] was 2.6 μL/min/1E6 and the solubility [8, 10] was 300 µM (≈ 137 µg/mL).
In the case of `COC[C@@H]1[C@@H](C)OCCN1c1ccc2nccc(C(=O)NCC(=O)N3CSC[C@H]3C#N)c2c1` [Example 97, N-(2-((R)-4-Cyanothiazolidin-3-yl)-2-oxoethyl)-6-((2R,3R)-3-(methoxymethyl)-2-methylmorpholino)quinoline-4-carboxamide], the IC50 [2] is reported as 890 nM, the “hFAP Binding assay k(off)” value [3] is reported as 0.000076 s⁻¹ and the “hFAP Binding assay k(on)” value [3] is reported as 690000 M⁻¹ s⁻¹. For the same compound, the Kd [3] was 0.11 nM, the microsomal CLint [5, 9] was 32 µL/min/mg and the Papp A→B [6] was 0.52 ×10⁻⁶ cm/s. It also gave a Papp B→A [6] of 23 ×10⁻⁶ cm/s, an efflux ratio [6] of 45 and an IC50 [4] of 0.23 nM. For the same compound, the “rHep CLint” value [7] was 19 μL/min/1E6 and the solubility [8, 10] was 950 µM (≈ 446 µg/mL).
For `N#C[C@@H]1CSCN1C(=O)CNC(=O)c1ccnc2ccc(N3CC(N4CCOCC4)C3)cc12` [Example 122, (R)—N-(2-(4-Cyanothiazolidin-3-yl)-2-oxoethyl)-6-(3-morpholinoazetidin-1-yl)quinoline-4-carboxamide], the IC50 [2] was 840 nM, the “hFAP Binding assay k(off)” value [3] was 0.000043 s⁻¹ and the “hFAP Binding assay k(on)” value [3] was 1300000 M⁻¹ s⁻¹. The Kd [3] was 0.033 nM, the microsomal CLint [5, 9] was < 3 µL/min/mg and the Papp A→B [6] was 0.2 ×10⁻⁶ cm/s. For the same compound, the Papp B→A [6] was 10 ×10⁻⁶ cm/s, the efflux ratio [6] was 50 and the IC50 [4] was 0.049 nM. For the same compound, the “rHep CLint” value [7] was <1 μL/min/1E6 and the solubility [8, 10] was > 1000 µM.
For `CC1(C(F)F)CN(c2ccc3nccc(C(=O)NCC(=O)N4CSC[C@H]4C#N)c3c2)C1` [Example 135, (R)—N-(2-(4-Cyanothiazolidin-3-yl)-2-oxoethyl)-6-(3-(difluoromethyl)-3-methylazetidin-1-yl)quinoline-4-carboxamide], the IC50 [2] was 500 nM, the “hFAP Binding assay k(off)” value [3] was 0.000023 s⁻¹ and the “hFAP Binding assay k(on)” value [3] was 1700000 M⁻¹ s⁻¹. It also gave a Kd [3] of 0.013 nM, a microsomal CLint [5, 9] of 23 µL/min/mg and a Papp A→B [6] of 4.4 ×10⁻⁶ cm/s. It also gave a Papp B→A [6] of 29 ×10⁻⁶ cm/s, an efflux ratio [6] of 6.5 and an IC50 [4] of 0.11 nM. For the same compound, the “rHep CLint” value [7] was 6.8 μL/min/1E6 and the solubility [8, 10] was 310 µM (≈ 138 µg/mL).
For `CCC1(O)CN(c2ccc3nccc(C(=O)NCC(=O)N4CSC[C@H]4C#N)c3c2)C1` [Example 154, (R)—N-(2-(4-Cyanothiazolidin-3-yl)-2-oxoethyl)-6-(3-ethyl-3-hydroxy-azetidin-1-yl)quinoline-4-carboxamide], the IC50 [2] was 590 nM, the “hFAP Binding assay k(off)” value [3] was 0.000054 s⁻¹ and the “hFAP Binding assay k(on)” value [3] was 910000 M⁻¹ s⁻¹. For the same compound, the Kd [3] was 0.059 nM, the microsomal CLint [5, 9] was < 3 µL/min/mg and the Papp A→B [6] was 0.32 ×10⁻⁶ cm/s. For the same compound, the Papp B→A [6] was 12 ×10⁻⁶ cm/s, the efflux ratio [6] was 37 and the IC50 [4] was 0.092 nM. For the same compound, the “rHep CLint” value [7] was 2.7 μL/min/1E6 and the solubility [8, 10] was 850 µM (≈ 362 µg/mL).
With `N#C[C@@H]1CSCN1C(=O)CNC(=O)c1ccnc2ccc(N3CC4(CC(F)C4)C3)cc12` [Example 155, (R)—N-(2-(4-Cyanothiazolidin-3-yl)-2-oxoethyl)-6-(6-fluoro-2-azaspiro[3.3]heptan-2-yl)quinoline-4-carboxamide] the IC50 [2] was 380 nM, the “hFAP Binding assay k(off)” value [3] was 0.000050 s⁻¹ and the “hFAP Binding assay k(on)” value [3] was 3100000 M⁻¹ s⁻¹. The Kd [3] was 0.016 nM, the microsomal CLint [5] was 19 µL/min/mg and the Papp A→B [6] was 4.2 ×10⁻⁶ cm/s. For the same compound, the Papp B→A [6] was 27 ×10⁻⁶ cm/s, the efflux ratio [6] was 6.5 and the IC50 [4] was 0.086 nM. For the same compound, the “rHep CLint” value [7] was 3.2 μL/min/1E6 and the solubility [8] was 400 µM (≈ 176 µg/mL).
With `CC1(O)CN(c2ccc3nccc(C(=O)NCC(=O)N4CSC[C@H]4C#N)c3c2)C1` [Example 165, (R)—N-(2-(4-Cyanothiazolidin-3-yl)-2-oxoethyl)-6-(3-hydroxy-3-methyl-azetidin-1-yl)quinoline-4-carboxamide] the IC50 [2] was 670 nM, the “hFAP Binding assay k(off)” value [3] was 0.000063 s⁻¹ and the “hFAP Binding assay k(on)” value [3] was 1200000 M⁻¹ s⁻¹. The Kd [3] was 0.051 nM, the microsomal CLint [5, 9] was < 3 µL/min/mg and the Papp [6] was 0.51 ×10⁻⁶ cm/s. The IC50 [4] was 0.32 nM, the “rHep CLint” value [7] was <1 μL/min/1E6 and the solubility [8, 10] was > 1000 µM.
In the case of `CCC1(O)CCN(c2ccc3nccc(C(=O)NCC(=O)N4CSC[C@H]4C#N)c3c2)CC1` [Example 189, (R)—N-(2-(4-Cyanothiazolidin-3-yl)-2-oxoethyl)-6-(4-ethyl-4-hydroxy-piperidin-1-yl)quinoline-4-carboxamide], the IC50 [2] is reported as 440 nM, the “hFAP Binding assay k(off)” value [3] is reported as 0.000051 s⁻¹ and the “hFAP Binding assay k(on)” value [3] is reported as 2600000 M⁻¹ s⁻¹. It also gave a Kd [3] of 0.02 nM, a microsomal CLint [5, 9] of 11 µL/min/mg and a Papp A→B [6] of 0.29 ×10⁻⁶ cm/s. It also gave a Papp B→A [6] of 13 ×10⁻⁶ cm/s, an efflux ratio [6] of 46 and an IC50 [4] of 0.056 nM. For the same compound, the “rHep CLint” value [7] was <1 μL/min/1E6 and the solubility [8, 10] was 840 µM (≈ 381 µg/mL).
With `CC1(O)CCN(c2ccc3nccc(C(=O)NCC(=O)N4CSC[C@H]4C#N)c3c2)CC1` [Example 190, (R)—N-(2-(4-Cyanothiazolidin-3-yl)-2-oxoethyl)-6-(4-hydroxy-4-methyl-piperidin-1-yl)quinoline-4-carboxamide] the IC50 [2] was 690 nM, the “hFAP Binding assay k(off)” value [3] was 0.000036 s⁻¹ and the “hFAP Binding assay k(on)” value [3] was 1800000 M⁻¹ s⁻¹. The Kd [3] was 0.02 nM, the microsomal CLint [5, 9] was < 3 µL/min/mg and the Papp A→B [6] was 0.32 ×10⁻⁶ cm/s. The Papp B→A [6] was 7.6 ×10⁻⁶ cm/s, the efflux ratio [6] was 24 and the IC50 [4] was 0.069 nM. The “rHep CLint” value [7] was <1 μL/min/1E6 and the solubility [8, 10] was > 1000 µM.
In the case of `CC(C)C1(O)CCN(c2ccc3nccc(C(=O)NCC(=O)N4CSC[C@H]4C#N)c3c2)CC1` [Example 192, (R)—N-(2-(4-Cyanothiazolidin-3-yl)-2-oxoethyl)-6-(4-hydroxy-4-isopropyl-piperidin-1-yl)quinoline-4-carboxamide], the IC50 [2] is reported as 200 nM, the “hFAP Binding assay k(off)” value [3] is reported as 0.000014 s⁻¹ and the “hFAP Binding assay k(on)” value [3] is reported as 1300000 M⁻¹ s⁻¹. For the same compound, the Kd [3] was 0.0077 nM, the microsomal CLint [5, 9] was 28 µL/min/mg and the Papp A→B [6] was 0.51 ×10⁻⁶ cm/s. The Papp B→A [6] was 39 ×10⁻⁶ cm/s, the efflux ratio [6] was 76 and the IC50 [4] was 0.051 nM. The “rHep CLint” value [7] was 2.9 μL/min/1E6 and the solubility [8, 10] was 530 µM (≈ 248 µg/mL).
With `CO[C@H]1CCN(c2ccc3nccc(C(=O)NCC(=O)N4CSC[C@H]4C#N)c3c2)C1` [Example 207, N-(2-((R)-4-Cyanothiazolidin-3-yl)-2-oxoethyl)-6-((S)-3-methoxy-pyrrolidin-1-yl)quinoline-4-carboxamide] the IC50 [2] was 430 nM, the “hFAP Binding assay k(off)” value [3] was 0.000053 s⁻¹ and the “hFAP Binding assay k(on)” value [3] was 4600000 M⁻¹ s⁻¹. For the same compound, the Kd [3] was 0.011 nM, the microsomal CLint [5, 9] was < 3 µL/min/mg and the Papp A→B [6] was 2.3 ×10⁻⁶ cm/s. For the same compound, the Papp B→A [6] was 30 ×10⁻⁶ cm/s, the efflux ratio [6] was 13 and the IC50 [4] was 0.17 nM. For the same compound, the “rHep CLint” value [7] was 1.4 μL/min/1E6 and the solubility [8, 10] was 280 µM (≈ 119 µg/mL).
In the case of `N#C[C@@H]1CSCN1C(=O)CNC(=O)c1ccnc2ccc(N3CCC4(CC3)COC4)cc12` [Example 229, (R)—N-(2-(4-cyanothiazolidin-3-yl)-2-oxoethyl)-6-(2-oxa-7-azaspiro[3.5]nonan-7-yl)quinoline-4-carboxamide], the IC50 [2] is reported as 320 nM, the “hFAP Binding assay k(off)” value [3] is reported as 0.000026 s⁻¹ and the “hFAP Binding assay k(on)” value [3] is reported as 2400000 M⁻¹ s⁻¹. The Kd [3] was 0.01 nM, the microsomal CLint [5] was < 3 µL/min/mg and the Papp [6] was 0.7 ×10⁻⁶ cm/s. For the same compound, the Papp A→B [6] was 22 ×10⁻⁶ cm/s, the Papp B→A [6] was 32 ×10⁻⁶ cm/s and the IC50 [4] was 0.091 nM. For the same compound, the “rHep CLint” value [7] was 15 μL/min/1E6 and the solubility [8] was > 1000 µM.
